Columns and labels:
[1] = in vivo; conditions: mouse, ip, 14 nmol
Description: Half life in mouse at 14 nmol, ip administered as single dose

[2] = organism: Mus musculus; experiment: animal or person; conditions: Blood, po, read-out: INH
Description: Inhibition of purine nucleoside phosphorylase in mouse blood at 0.2 mg/kg, po administered as single dose

[3] = molecular target: T1, Purine nucleoside phosphorylase (Plasmodium falciparum, UniProt Q8T9Z7); experiment: Inhibition of Plasmodium falciparum purine nucleoside phosphorylase assessed as slow onset inhibition constant by xanthine-oxidase coupled assay
T1 sequence (Q8T9Z7 whole entry): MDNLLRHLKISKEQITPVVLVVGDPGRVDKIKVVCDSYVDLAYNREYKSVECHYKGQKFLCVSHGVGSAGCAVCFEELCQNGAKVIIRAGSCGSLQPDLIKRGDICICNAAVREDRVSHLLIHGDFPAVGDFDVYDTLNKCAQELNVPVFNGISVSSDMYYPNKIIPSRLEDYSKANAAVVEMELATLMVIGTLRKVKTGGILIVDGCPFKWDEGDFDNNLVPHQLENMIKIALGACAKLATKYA

[4] = in vivo; conditions: mouse, po, 14 nmol
Description: Half life in mouse at 14 nmol, po administered as single dose

[5] = molecular target: T1, Purine nucleoside phosphorylase; experiment: Inhibition of Plasmodium falciparum purine nucleoside phosphorylase by xanthine-oxidase coupled assay
[6] = molecular target: T2, Purine nucleoside phosphorylase (Homo sapiens, UniProt P00491); experiment: Inhibition of human purine nucleoside phosphorylase assessed as slow onset inhibition constant by xanthine-oxidase coupled assay
T2 sequence (P00491 whole entry): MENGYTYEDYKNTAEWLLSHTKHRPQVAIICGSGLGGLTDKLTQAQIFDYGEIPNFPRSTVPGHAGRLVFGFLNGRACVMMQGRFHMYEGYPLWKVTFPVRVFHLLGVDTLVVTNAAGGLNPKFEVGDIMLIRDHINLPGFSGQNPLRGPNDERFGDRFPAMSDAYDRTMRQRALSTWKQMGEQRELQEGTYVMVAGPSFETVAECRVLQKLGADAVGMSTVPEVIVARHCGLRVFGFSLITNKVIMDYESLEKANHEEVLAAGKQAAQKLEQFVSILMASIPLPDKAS

[7] = molecular target: T2, Purine nucleoside phosphorylase; experiment: Inhibition of human purine nucleoside phosphorylase by xanthine-oxidase coupled assay

| SMILES | half-life [1] [h] | inhibition in vivo at 0.2 mg/kg [2] [%] | Ki [3] [nM] | half-life [4] [h] | Ki [5] [nM] | Ki* [6] [nM] | Ki [7] [nM] |
| --- | --- | --- | --- | --- | --- | --- | --- |
| O=c1[nH]cnc2c(CN3C[C@H](O)[C@@](F)(CO)C3)c[nH]c12 | < 0.25 | 80 | 19 | 20 | 2.63 | 0.032 | 0.33 |
| O=c1[nH]cnc2c(CN3C[C@@H](CO)[C@H](O)C3)c[nH]c12 | – | – | 1700 | – | 80 | – | 0.38 |
| O=c1[nH]cnc2c(CN3C[C@@H](O)[C@](F)(CO)C3)c[nH]c12 | – | – | 2070 | – | 260 | 1.82 | 18 |
| O=c1[nH]cnc2c(CN3C[C@H](O)[C@@](F)(CO)C3)c[nH]c12 (racemic) | – | – | 23.3 | – | 3.6 | – | – |

From ChEMBL document CHEMBL1140139, “A beta-fluoroamine inhibitor of purine nucleoside phosphorylase” (J Med Chem, 2008)
